According to ChEMBL document CHEMBL1153530, “Pursuing aldose reductase inhibitors through in situ cross-docking and similarity-based virtual screening” (J Med Chem, 2009):

target: Aldo-keto reductase family 1 member B1 (Rattus norvegicus, UniProt P07943); test: Inhibition of ALR2 from Sprague-Dawley albino rat lens extract by spectrophotometrically

Going from `O=C(O)[C@H]1Cc2ccccc2N1C(=O)OCc1ccccc1` to `O=C(O)[C@@H]1CSCN1C(=O)OCC1c2ccccc2-c2ccccc21`, the IC50 falls from 41.4 µM to 3.92 µM (11-fold).

Compared with `N#CC(C#N)=CNc1ccc(S(=O)(=O)c2ccc(NC=C(C#N)C#N)cc2)cc1`, `O=C(O)C(Cc1ccc([N+](=O)[O-])cc1)NS(=O)(=O)c1ccccc1` (stereo unspecified) is 2-fold higher in IC50: 52.7 µM for the first, 107 µM for the second. The first is the more potent here.

`COc1cccc2c1c(NC(=O)CSCC(=O)O)nn2C` and `O=C(O)C[C@@H](CC(=O)Nc1ccc2ccccc2n1)c1ccccc1` are within 1.5-fold of each other in IC50: 77.6 µM for the first, 85.3 µM for the second.

`CN(C)C(=O)Oc1ccc2nnc3ccnn3c2c1` and `O=S(=O)(Oc1ccc2nonc2c1)c1ccc(Cl)s1` are within 1.5-fold of each other in IC50: 38.7 µM for the first, 35.6 µM for the second.

Compared with `Cc1ccc(S(=O)(=O)Oc2c(Cc3ccccc3)c(=O)n(C)c3ccccc23)cc1`, `O=[N+]([O-])c1c(Sc2ccccc2)sc(Sc2ccccc2)c1[N+](=O)[O-]` is 1.5-fold higher in IC50: 31.1 µM for the first, 48.1 µM for the second.

`O=C(O)CCCc1nc(-c2cnc3n(c2=O)CCS3)no1` was tested, and the IC50 was 1.19 µM.
